# Data reported in PMC9977398, “Next-generation membrane-active glycopeptide antibiotics that also inhibit bacterial cell division” (Chemical Science, 2023).
# How the values were obtained:
# [1] = test system: GFP-FtsI expressing E. coli; experiment: GFP-FtsI localization and morphology; assay type: cell-based; settings: for localization of GFP-FtsI: vancomycin 34 μM, VanQAmC10 10 and 15 μM
# Protocol: FtsI or PBP-3 is the only transpeptidase required for bacterial cell division and localizes to the septal ring.[37] It regulates the degree of cross-linking and coordinates the division process. GFP-tagged FtsI producing E. coli cells were treated with vancomycin (at 34 μM) and VanQAmC10 (at 10 μM and 15 μM; Fig. 5C) and then examined under the microscope. […] Upon treatment with 10 μM of VanQAmC10, larger phenotypes of variable sizes are observed with shape defects. Some cells appear filamentous like in the case of cephalexin. The GFP-FtsI protein appears as green fluorescent spots delocalized across the cell in 60% of the cells visualized. At a higher concentration of 15 μM, bulkier cells with more distorted shapes than those at 10 μM were observed (Fig. S5 ^†). […]
# resuspended in prewarmed BMM media. 1:1 BAC light dye was then added to the bacterial suspension and incubated for 5 minutes. The fluorescence in the GFP and Texas red channels was then observed under the microscope. The experiments were performed three times independently and the images are representative of results from three independent experiments.
# B. subtilis 1981 GFP-MinD was cultured overnight in BMM.8 Cells were then inoculated in xylose containing BMM instead of glucose to an OD500 of 0.1 to induce expression of the GFP-MinD fusion protein. Upon reaching an OD500 of 0.35, the cells were treated with test compounds at the PEC (vancomycin, VanQAmC10, VanQbiph) and 0.75 μg/mL (nisin) for 15 min. 0.5 μl of nonfixed, non-immobilized samples of the culture were imaged immediately in fluorescent mode (Olympus microscope with a U-LH100HGAPO burner and a U-RFL-T power supply). The experiments were performed three times independently and the images are representative of results from three independent experiments.
# GFP-FtsI and GFP-FtsZ localization in E. coli […]
# About 6 μl of sample was immobilized on 1% agarose pad . DIC and fluorescence images were obtained at different time intervals using Nikon Eclipse Ti Microscope equipped with Nikon DS-U3 camera through Plan Apo 100×/1.40 oil objective. […]
# RAW 264.7 cells = test system: RAW 264.7 cells; parameters: method as in PMID 32195571; settings: cited from earlier work
# [2] = mice, intravenous injection; cited from earlier work
SMILES,localization of GFP-FtsI [1],cells with delocalized GFP-FtsI ([1]; 10 μM),concentration up to which non-toxic (RAW 264.7 cells),LD50 [2]
"CN[C@H](CC(C)C)C(=O)N[C@H]1C(=O)N[C@@H](CC(N)=O)C(=O)N[C@H]2C(=O)N[C@H]3C(=O)N[C@H](C(=O)N[C@H](C(=O)O)c4cc(O)cc(O)c4-c4cc3ccc4O)[C@H](O)c3ccc(c(Cl)c3)Oc3cc2cc(c3O[C@@H]2O[C@H](CO)[C@@H](O)[C@H](O)[C@H]2O[C@H]2C[C@](C)(N)[C@H](O)[C@H](C)O2)Oc2ccc(cc2Cl)[C@H]1O [Vancomycin, reference compound]",localization of FtsI at the septum,–,–,–
CCCCCCCCCCNC(=O)C[N+](C)(C)CCCNC(=O)C1NC(=O)C2NC(=O)C(NC(=O)C3NC(=O)C(CC(N)=O)NC(=O)C(NC(=O)C(CC(C)C)NC)C(O)c4ccc(c(Cl)c4)Oc4cc3cc(c4OC3OC(CO)C(O)C(O)C3OC3CC(C)(N)C(O)C(C)O3)Oc3ccc(cc3Cl)C2O)c2ccc(O)c(c2)-c2c(O)cc(O)cc21 (centres unmarked) [VanQAmC10 (8)],"mislocalizes the cell division protein, FtsI",60%,40 µM,70 mg/kg
